The text below walks through data of patent publication US9676714B2, “Sulfonylindole derivatives and method for preparing the same” (Daewoong Pharmaceutical Co., Ltd., priority 2013, dated 2017).

Test [1] has as its system basal gastric acid secretion. As to the kind of experiment: Inhibitory effect on the basal gastric acid secretion in pylorus-ligated rats (Shay's rat model). The class given is in vivo, Sprague Dawley (SD) rats. The conditions noted are these: 5 h, male SD rats, 3 mg/kg/2 ml into the duodenum, five hours after the ligation, total gastric acid secretion vs control group. As to the method:
3) Inhibitory Effect on the Basal Gastric Acid Secretion in Pylorus-Ligated Rats
Assays for determining inhibitory effect of the compounds of the present invention on the basal gastric acid secretion was performed according to Shay's rat model (Shay, H., et al., 1945, gastroenterology, 5, p. 43-61). Male Sprague Dawley (SD) rats with a body weight in the range of 180˜220 g were divided into test (n=5) and control groups (n=5), and fasted for 18 hours with free access to water. Under isoflurane anesthesia, the abdomens of the rats were incised and then the pylorus was ligated. After the ligation, the control groups were administered with only 10% ethanol, 20% polyethylene glycol (PEG) 400, and 10% aqueous Cremophor solution through the duodenum, and the other groups were administered with test compounds suspended in 10% ethanol, 20% PEG 400, and 10% aqueous Cremophor solution at a concentration of 3 mg/kg/2 ml into the duodenum. Five hours after the ligation, the experimental animals were euthanized and their stomach contents were collected. The thus obtained contents were centrifuged at 4,000×g for 10 minutes, and the supernatant was recovered to obtain gastric juice therefrom. The amount of the gastric juice and its pH were measured. The acidity of the gastric juice was determined by 0.1 N-NaOH volume (ueq/mL) for automatic titration of gastric acid to pH 7.0. The total acid output was obtained by multiplying the gastric acidity by the amount of gastric juice. Inhibition Activity (%) of Test Compounds=(total gastric acid secretion in control group−total gastric acid secretion in groups treated with test compounds)/total gastric acid secretion in control group×100

Test [2] deals with T1, proton pump (H+/K+-ATPase) (Sus scrofa, UniProt P19156).
T1 construct: Gastric vesicles were prepared from hog stomach via centrifugal separation; from tissue; host or cells: hog stomach (gastric vesicles, method of Rabon et al. 1988)
T1 sequence (P19156 whole entry): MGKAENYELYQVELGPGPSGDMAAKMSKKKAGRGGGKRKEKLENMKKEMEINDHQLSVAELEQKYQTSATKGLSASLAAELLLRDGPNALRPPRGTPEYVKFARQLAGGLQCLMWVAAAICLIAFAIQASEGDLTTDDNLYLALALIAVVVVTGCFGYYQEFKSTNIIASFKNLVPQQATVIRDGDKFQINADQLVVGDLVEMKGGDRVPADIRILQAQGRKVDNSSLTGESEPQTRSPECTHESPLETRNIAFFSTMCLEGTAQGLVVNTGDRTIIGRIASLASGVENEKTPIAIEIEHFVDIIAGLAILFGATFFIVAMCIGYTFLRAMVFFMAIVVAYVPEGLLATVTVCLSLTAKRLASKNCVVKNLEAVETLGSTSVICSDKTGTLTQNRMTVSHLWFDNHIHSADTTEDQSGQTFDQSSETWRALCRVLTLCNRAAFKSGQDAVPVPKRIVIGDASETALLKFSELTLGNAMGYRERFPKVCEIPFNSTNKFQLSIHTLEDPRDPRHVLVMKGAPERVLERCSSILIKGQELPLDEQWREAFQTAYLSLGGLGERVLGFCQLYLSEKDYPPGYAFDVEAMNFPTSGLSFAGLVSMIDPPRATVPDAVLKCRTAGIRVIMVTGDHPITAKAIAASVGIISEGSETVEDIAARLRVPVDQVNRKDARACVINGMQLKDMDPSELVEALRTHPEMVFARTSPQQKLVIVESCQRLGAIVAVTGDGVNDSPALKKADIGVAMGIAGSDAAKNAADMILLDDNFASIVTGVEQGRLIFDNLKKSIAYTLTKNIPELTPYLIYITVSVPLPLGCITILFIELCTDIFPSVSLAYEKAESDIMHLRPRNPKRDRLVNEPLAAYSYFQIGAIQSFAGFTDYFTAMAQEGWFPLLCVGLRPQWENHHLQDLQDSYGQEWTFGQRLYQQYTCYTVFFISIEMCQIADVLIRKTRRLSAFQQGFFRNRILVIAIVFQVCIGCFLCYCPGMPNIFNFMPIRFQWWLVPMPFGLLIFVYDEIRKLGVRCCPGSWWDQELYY
T1 sequence (P18434 whole entry partner): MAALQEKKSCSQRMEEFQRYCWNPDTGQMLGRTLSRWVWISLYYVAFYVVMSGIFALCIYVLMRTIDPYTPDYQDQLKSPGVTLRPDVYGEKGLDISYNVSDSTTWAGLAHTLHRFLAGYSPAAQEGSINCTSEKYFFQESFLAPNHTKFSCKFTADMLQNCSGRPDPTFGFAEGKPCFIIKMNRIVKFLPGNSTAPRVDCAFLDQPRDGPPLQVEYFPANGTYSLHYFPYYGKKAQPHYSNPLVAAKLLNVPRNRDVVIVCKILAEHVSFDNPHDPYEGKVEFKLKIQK
Nature of the test: Measurement of inhibitory effects on proton pump (H+/K+-ATPase) activities. The class given is biochemical. Conditions: hog gastric vesicles, K+-specific H+/K+-ATPase activity, Tris-HCl buffer pH 7.4, 37° C. for 40 minutes, malachite green Pi readout. In short, it runs like this:
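Hog gastric vesicles in 60 mmol/l Tris-HCl pH 7.4 with 0.5% DMSO were treated with compounds at room temperature; reaction was started with 10 μl of 10 mmol/l ATP stock. Released Pi was read at 570 nm, K+-specific activity taken as the ±K+ difference. IC50 from 4-parameter logistic fit.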

Where a name gives a salt, the structure may show the parent alone.

In test [1], `CNCc1cn(S(=O)(=O)c2cccnc2)c2cc(Nc3ccc(Cl)cc3C(F)(F)F)ccc12` [Example 31, N-(4-chloro-2-(trifluoromethyl)phenyl)-3-((methylamino)methyl)-1-(pyridin-3-ylsulfonyl)-1H-indol-6-amine hydrochloride] showed an inhibition in vivo at 3 mg/kg of 41%. The same molecule displayed an IC50 in test [2] of 0.92 µM.

`CNCc1cn(S(=O)(=O)c2cccnc2)c2cc(Nc3ccc(C(F)(F)F)cc3Cl)ccc12` [Example 34, N-(2-chloro-4-(trifluoromethyl)phenyl)-3-((methylamino)methyl)-1-(pyridin-3-ylsulfonyl)-1H-indol-6-amine hydrochloride] came in with an inhibition in vivo at 3 mg/kg in test [1] of 45%. Further, inhibition in test [2] was half-maximal at 0.39 µM (IC50).

In turn, `CNCc1cn(S(=O)(=O)c2cccnc2)c2cc(Nc3ccc(OC)cc3OC(F)(F)F)ccc12` [Example 50, N-(4-methoxy-2-(trifluoromethoxy)phenyl)-3-((methylamino)methyl)-1-(pyridin-3-ylsulfonyl)-1H-indol-6-amine hydrochloride] came in with an inhibition in vivo at 3 mg/kg in test [1] of 67%. This molecule also returned an IC50 in test [2] of 1.37 µM.

Take `CNCc1cn(S(=O)(=O)c2cccnc2)c2cc(Nc3ccc(OC)cc3[N+](=O)[O-])ccc12` [Example 52, N-(4-methoxy-2-nitrophenyl)-3-((methylamino)methyl)-1-(pyridin-3-ylsulfonyl)-1H-indol-6-amine hydrochloride]: the inhibition in vivo at 3 mg/kg in test [1] turned out to be 70%. This molecule also gave an IC50 in test [2] of 0.29 µM.

In test [1], `CNCc1cn(S(=O)(=O)c2cccnc2)c2cc(Nc3ccc(OC(F)(F)F)cc3C)ccc12` [Example 53, N-(2-methyl-4-(trifluoromethoxy)phenyl)-3-((methylamino)methyl)-1-(pyridin-3-ylsulfonyl)-1H-indol-6-amine hydrochloride] came in with an inhibition in vivo at 3 mg/kg of 45%. The molecule also returned an IC50 in test [2] of 0.49 µM.

Consider `CNCc1cn(S(=O)(=O)c2cccnc2)c2cc(Nc3ccc(OC(F)(F)F)cc3Cl)ccc12` [Example 55, N-(2-chloro-4-(trifluoromethoxy)phenyl)-3-((methylamino)methyl)-1-(pyridin-3-ylsulfonyl)-1H-indol-6-amine hydrochloride], for which the inhibition in vivo at 3 mg/kg in test [1] was determined as 55%. Further, in test [2], 0.42 µM corresponded to half-maximal inhibition (IC50).

In test [1], `CNCc1cn(S(=O)(=O)c2cccnc2)c2cc(Nc3ccc(OC(F)(F)F)cc3OC)ccc12` [Example 56, N-(2-methoxy-4-(trifluoromethoxy)phenyl)-3-((methylamino)methyl)-1-(pyridin-3-ylsulfonyl)-1H-indol-6-amine hydrochloride] displayed an inhibition in vivo at 3 mg/kg of 82%. This molecule also showed an IC50 in test [2] of 0.46 µM.

The molecule `CNCc1cn(S(=O)(=O)c2cccnc2)c2cc(Nc3ccc(C)c(F)c3F)ccc12` [Example 65, N-(2,3-difluoro-4-methylphenyl)-3-((methylamino)methyl)-1-(pyridin-3-ylsulfonyl)-1H-indol-6-amine hydrochloride] yielded an inhibition in vivo at 3 mg/kg in test [1] of 42%. For the same molecule, in test [2], the midpoint of inhibition, the IC50, lay at 0.31 µM.

`CNCc1cn(S(=O)(=O)c2cccnc2)c2cc(Nc3cc(F)c(C)cc3F)ccc12` [Example 72, N-(2,5-difluoro-4-methylphenyl)-3-((methylamino)methyl)-1-(pyridin-3-ylsulfonyl)-1H-indol-6-amine hydrochloride]: in test [1], the inhibition in vivo at 3 mg/kg was 49%. In test [2], this molecule gave an IC50 of 0.61 µM.

In the case of `CNCc1cn(S(=O)(=O)c2cccnc2)c2cc(Nc3cccnc3OC)ccc12` [Example 108, N-(2-methoxypyridin-3-yl)-3-((methylamino)methyl)-1-(pyridin-3-ylsulfonyl)-1H-indol-6-amine hydrochloride], in test [1], at 3 mg/kg the inhibition in vivo was 49%. This molecule showed a half-inhibitory concentration (IC50) in test [2] of 1.59 µM.

For `CNCc1cn(S(=O)(=O)c2cccnc2)c2cc(Nc3ccc(Cl)nc3OC)ccc12` [Example 120, N-(6-chloro-2-methoxypyridin-3-yl)-3-((methylamino)methyl)-1-(pyridin-3-ylsulfonyl)-1H-indol-6-amine hydrochloride], the inhibition in vivo at 3 mg/kg in test [1] amounted to 46%. For the same molecule, the half-inhibitory concentration (IC50) in test [2] came out at 0.42 µM.

`CNCc1cn(S(=O)(=O)c2cccnc2)c2cc(Nc3ccc(OC)nc3Cl)ccc12` [Example 123, N-(2-chloro-6-methoxypyridin-3-yl)-3-((methylamino)methyl)-1-(pyridin-3-ylsulfonyl)-1H-indol-6-amine hydrochloride] displayed an inhibition in vivo at 3 mg/kg in test [1] of 40%. In test [2], it took 0.35 µM to reach half-maximal inhibition (IC50).

In test [1], `CNCc1cn(S(=O)(=O)c2cccnc2)c2cc(Nc3ccc(C(F)(F)F)nc3Cl)ccc12` [Example 125, N-(2-chloro-6-(trifluoromethyl)pyridin-3-yl)-3-((methylamino)methyl)-1-(pyridin-3-ylsulfonyl)-1H-indol-6-amine hydrochloride] displayed an inhibition in vivo at 3 mg/kg of 45%. Also, in test [2], the IC50 turned out to be 1.06 µM.

For the molecule `CNCc1cn(S(=O)(=O)c2cccnc2)c2cc(Nc3ccnc(Cl)c3Br)ccc12` [Example 133, N-(3-bromo-2-chloropyridin-4-yl)-3-((methylamino)methyl)-1-(pyridin-3-ylsulfonyl)-1H-indol-6-amine hydrochloride], in test [1], 3 mg/kg produced 40% inhibition in vivo. Inhibition in test [2] was half-maximal at 0.77 µM (IC50).

As to `CNCc1cn(S(=O)(=O)c2cccc(F)c2)c2cc(Nc3ccc(F)cc3C)ccc12` [Example 138, N-(4-fluoro-2-methylphenyl)-1-((3-fluorophenyl)sulfonyl)-3-((methylamino)methyl)-1H-indol-6-amine hydrochloride], at 3 mg/kg the inhibition in vivo in test [1] was 55%. In addition, the half-maximal inhibitory concentration (IC50) in test [2] came out at 0.12 µM.

Consider `CNCc1cn(S(=O)(=O)c2cccc(F)c2)c2cc(Nc3ccc(OC)cc3F)ccc12` [Example 139, N-(2-fluoro-4-methoxyphenyl)-1-((3-fluorophenyl)sulfonyl)-3-((methylamino)methyl)-1H-indol-6-amine hydrochloride], for which the inhibition in vivo at 3 mg/kg in test [1] is 40%. For the same molecule, the concentration for half-maximal inhibition (IC50) in test [2] worked out at 0.18 µM.

For the molecule `CNCc1cn(S(=O)(=O)c2cccc(F)c2)c2cc(Nc3ccc(Cl)nc3OC)ccc12` [Example 141, N-(6-chloro-2-methoxypyridin-3-yl)-1-((3-fluorophenyl)sulfonyl)-3-((methylamino)methyl)-1H-indol-6-amine hydrochloride], the inhibition in vivo at 3 mg/kg in test [1] was determined as 51%. It took 0.39 µM to reach half-maximal inhibition in test [2] (IC50).

As for `CNCc1cn(S(=O)(=O)c2cccc(F)c2)c2cc(Nc3ccc(Cl)nc3Cl)ccc12` [Example 142, N-(2,6-dichloropyridin-3-yl)-1-((3-fluorophenyl)sulfonyl)-3-((methylamino)methyl)-1H-indol-6-amine hydrochloride], the inhibition in vivo at 3 mg/kg in test [1] came to 42%. In test [2], this molecule returned an IC50 of 0.12 µM.

On to `CNCc1cn(S(=O)(=O)c2cccc(F)c2)c2cc(Nc3ccc(Cl)nc3C(F)(F)F)ccc12` [Example 143, N-(6-chloro-2-(trifluoromethyl)pyridin-3-yl)-1-((3-fluorophenyl)sulfonyl)-3-((methylamino)methyl)-1H-indol-6-amine hydrochloride], for which the inhibition in vivo at 3 mg/kg in test [1] was found to be 53%. This molecule also displayed an IC50 in test [2] of 0.29 µM.

The molecule `CNCc1cn(S(=O)(=O)c2cccc(F)c2)c2cc(Nc3ccc(OC)nc3Cl)ccc12` [Example 144, N-(2-chloro-6-methoxypyridin-3-yl)-1-((3-fluorophenyl)sulfonyl)-3-((methylamino)methyl)-1H-indol-6-amine hydrochloride] registered an inhibition in vivo at 3 mg/kg in test [1] of 53%. Also, the IC50 in test [2] was 0.38 µM.

`CNCc1cn(S(=O)(=O)c2cccc(F)c2)c2cc(Nc3ccc(C(F)(F)F)nc3Cl)ccc12` [Example 145, N-(2-chloro-6-(trifluoromethyl)pyridin-3-yl)-1-((3-fluorophenyl)sulfonyl)-3-((methylamino)methyl)-1H-indol-6-amine hydrochloride]: the inhibition in vivo at 3 mg/kg in test [1] came out at 45%. For the same molecule, inhibition in test [2] was half-maximal at 0.17 µM (IC50).

Regarding `CNCc1cn(S(=O)(=O)c2cccc(Cl)c2)c2cc(Nc3ccc(C)cc3OC(F)(F)F)ccc12` [Example 148, 1-((3-chlorophenyl)sulfonyl)-N-(4-methyl-2-(trifluoromethoxy)phenyl)-3-((methylamino)methyl)-1H-indol-6-amine hydrochloride], testing at 3 mg/kg in test [1] gave an inhibition in vivo of 45%. Besides, it took 0.01 µM to reach half-maximal inhibition in test [2] (IC50).

In test [1], `CNCc1cn(S(=O)(=O)c2cccc(Cl)c2)c2cc(Nc3ccc(OC)cc3F)ccc12` [Example 153, 1-((3-chlorophenyl)sulfonyl)-N-(2-fluoro-4-methoxyphenyl)-3-((methylamino)methyl)-1H-indol-6-amine hydrochloride] displayed an inhibition in vivo at 3 mg/kg of 42%. The molecule also registered a 50% inhibitory concentration (IC50) in test [2] of 0.26 µM.
